Patent US9877980B2, “Method and composition for treatment or prevention of type 2 diabetes and hyperlipidemia” (Chun-Ching Shih, priority 2016, dated 2018)
Marks after values point to notes of the source that are not given here.

Tests used:
Format in all cases: in vivo
adiponectin = assay: Semi-quantitative RT-PCR of liver mRNA: adiponectin; conditions: HFD mice; 40 mg/kg/day oral gavage, 4 weeks; vs HF group
Experimental: The following experiment was performed and approved by the guidelines of the Institutional Animal Care and Use Committee of Central Taiwan University of Science and Technology. The 4-week old male C57BL/6J mice (total amount n=63) were purchased from the National Laboratory Animal Breeding and Research Center (Taipei, Taiwan). After acclimatization for one week, all of the mice were divided randomly into the control (CON) group and the high-fat diet (HFD) group. […] After HFD exposure for 8 weeks, the HFD group was further randomly subdivided into 6 groups (n=9 per group) to receive different treatments by oral gavage once daily for four weeks and on HFD. […] The HF+B1, HF+B2, and […] are collectively termed BB-treated HFD groups in the following examples. […]
Total RNA from liver tissue of mice was isolated with a Trizol Reagent (Molecular Research Center, Inc., Cincinnati, Ohio, USA) according to the manufacturer's instructions. The integrity of the extracted total RNA was examined by 2% agarose gel electrophoresis, and the RNA concentration was determined by the ultraviolet (UV) light absorbency at 260 nm and 280 nm (Spectrophotometer U-2800A, Hitachi). […]
(§1) Levels of mRNA of genes of interest were quantified by semi-quantitative reverse transcription polymerase chain reaction (RT-PCR). […] PCR products were analyzed by 2% agarose gels and stained with ethidium bromide.

[1] = test system: epididymal adipocyte of HFD mice; assay: Histology of epididymal white adipose tissue (adipocyte hypertrophy); conditions: 4 weeks, three measurements
Experimental: (§2) The following experiment was performed and approved by the guidelines of the Institutional Animal Care and Use Committee of Central Taiwan University of Science and Technology. The 4-week old male C57BL/6J mice (total amount n=63) were purchased from the National Laboratory Animal Breeding and Research Center (Taipei, Taiwan). After acclimatization for one week, all of the mice were divided randomly into the control (CON) group and the high-fat diet (HFD) group. For the following 12 weeks, the CON group (n=9) was kept on a low-fat diet (Diet 12450B, Research Diets, Inc., New Brunswick, N.J., USA), while the HFD group (n=54) was exposed to a high-fat diet (Diet 12451, Research Diets, New Brunswick, N.J., USA). The low-fat diet was composed of protein 20%, carbohydrate 70% and fat 10%, whereas the high-fat diet was composed of protein 20%, carbohydrate 35%, and fat 45% (of total energy, % kcal). After HFD exposure for 8 weeks, the HFD group was further randomly subdivided into 6 groups (n=9 per group) to receive different treatments by oral gavage once daily for four weeks and on HFD. […] The HF+B1, HF+B2, and […] are collectively termed BB-treated HFD groups in the following examples. The CON mice were administered vehicle. After dosing for 4 weeks, the mice were given no food at night and sacrificed after 12 h of fasting on the next day. All of the individual tissues were collected and weighed, and portions were instantly frozen using liquid nitrogen and kept at −80° C. for subsequent target gene analysis. Blood samples (0.8 mL) were collected for analysis of blood parameters.
Small pieces of epididymal white adipose tissue and liver tissue were fixed with formalin (200 g/kg) neutral buffered solution and embedded in paraffin. Sections of 8 μm […] were cut and stained with hematoxylin and eosin. For microscopic examination, a microscope (Leica, DM2500) was used, and the images were taken using a Leica Digital Camera (DFC-425-C).
Adipocyte hypertrophy, the pathological enlargement of adipocytes, is often found in subjects with type 2 diabetes and hyperlipidemia. To verify the therapeutic effect of the compound of formula I on adipocyte hypertrophy, morphology of the EWAT for the CON group and the BB-treated HFD groups was examined. Micrographs of the EWAT sections for each group were analyzed to determine the mean area of an epididymal adipocyte using the software ImageJ.

[2] = test system: C57BL/6J mice on high-fat diet (HFD); assay: Absolute tissue weight, body weight, weight gain and food intake in HFD mice; conditions: 4 weeks
Experimental: as §2
Body weight of each mouse was monitored and measured daily at the same time throughout the experimentation. The difference in body weight between two consecutive days is defined as body weight gain. The food pellets for mice were weighed and put into the food container. Unconsumed pellets of high-fat diet were discarded each day and fresh pellets of high-fat diet were provided to ensure food quality throughout the experimentation. The high-fat food pellets were stored at 4° C.

11β-HSD1 = assay: Semi-quantitative RT-PCR of liver mRNA: 11β-HSD1; conditions: HFD mice, 4 weeks, vs HF group
Experimental: as §2, with “For the following 12 weeks, the CON group (n=9) was kept on a low-fat diet (Diet 12450B, Research Diets, Inc., New Brunswick, N.J., USA), while the HFD group (n=54) was exposed to a high-fat diet (Diet 12451, Research Diets, New Brunswick, N.J., USA). The low-fat diet was composed of protein 20%, carbohydrate 70% and fat 10%, whereas the high-fat diet was composed of protein 20%, carbohydrate 35%, and fat 45% (of total energy, % kcal).” left out
Total RNA from liver tissue of mice was isolated with a Trizol Reagent (Molecular Research Center, Inc., Cincinnati, Ohio, USA) according to the manufacturer's instructions. The integrity of the extracted total RNA was examined by 2% agarose gel electrophoresis, and the RNA concentration was determined by the ultraviolet (UV) light absorbency at 260 nm and 280 nm (Spectrophotometer U-2800A, Hitachi). The quality of the RNA was confirmed by ethidium bromide staining of 18S and 28S ribosomal RNA after electrophoresis on 2% agarose gel containing 6% formaldehyde.
as §1

## OCC1O[C@@H](O[C@@H]2Cc3c(O)cc(O)cc3O[C@@H]2c2ccc(O)c(O)c2)C(O)C(O)[C@@H]1O (single isomer, unassigned; (-)) [compound of formula I, (−)-epicatechin-3-O-β-D-allopyranoside]
adiponectin
  liver adiponectin mRNA level: enhanced
[1]; 10 mg/kg/day oral gavage
  mean area of an epididymal adipocyte: 6882.8±102.2 μm^2
[1]; 20 mg/kg/day oral gavage
  mean area of an epididymal adipocyte: 6475.5±102.6 μm^2
[1]; 40 mg/kg/day oral gavage
  mean area of an epididymal adipocyte: 6192.7±100.7 μm^2
[2]; 10 mg/kg/day oral gavage
  Absolute tissue weight BAT: 0.168 ± 0.011 g
  Absolute tissue weight EWAT: 0.906 ± 0.105^d g
  Absolute tissue weight Liver: 0.899 ± 0.036 g
  Absolute tissue weight MWAT: 0.293 ± 0.018 g
  Absolute tissue weight RWAT: 0.280 ± 0.043^d g
  Absolute tissue weight Skeletal muscle: 0.873 ± 0.060 g
  Absolute tissue weight Visceral fat: 1.273 ± 0.147^d g
  Body weight: 27.85 ± 1.04 g
  Food intake: 2.08 ± 0.05 g/day/mouse
  Weight gain: 0.40 ± 0.28 g
[2]; 20 mg/kg/day oral gavage
  Absolute tissue weight BAT: 0.156 ± 0.017 g
  Absolute tissue weight EWAT: 0.902 ± 0.084^d g
  Absolute tissue weight Liver: 0.866 ± 0.036 g
  Absolute tissue weight MWAT: 0.267 ± 0.021 g
  Absolute tissue weight RWAT: 0.263 ± 0.034^f g
  Absolute tissue weight Skeletal muscle: 0.813 ± 0.077 g
  Absolute tissue weight Visceral fat: 1.199 ± 0.104^e g
  Body weight: 27.88 ± 1.14 g
  Food intake: 2.03 ± 0.03 g/day/mouse
  Weight gain: 0.61 ± 0.43 g
[2]; 40 mg/kg/day oral gavage
  Absolute tissue weight BAT: 0.144 ± 0.010 g
  Absolute tissue weight EWAT: 0.936 ± 0.075^d g
  Absolute tissue weight Liver: 0.848 ± 0.028 g
  Absolute tissue weight MWAT: 0.236 ± 0.030 g
  Absolute tissue weight RWAT: 0.233 ± 0.026^f g
  Absolute tissue weight Skeletal muscle: 1.156 ± 0.102^d g
  Absolute tissue weight Visceral fat: 1.198 ± 0.075^e g
  Body weight: 27.15 ± 0.84 g
  Food intake: 2.02 ± 0.03 g/day/mouse
  Weight gain: −0.05 ± 0.11^d g
11β-HSD1; 10 mg/kg/day oral gavage
  liver mRNA level of 11β-HSD1: significantly reduced
11β-HSD1; 20 mg/kg/day oral gavage
  liver mRNA level of 11β-HSD1: significantly reduced
11β-HSD1; 40 mg/kg/day oral gavage
  liver mRNA level of 11β-HSD1: significantly reduced
